From article PMC8416862 (Clinical Pharmacokinetics, 2021)
One block for each molecule: values may come before it.

What was measured:
[1] = Trial 2: plasma pharmacokinetics of single-dose furosemide and rosuvastatin; assay type: in vivo, healthy male and female subjects; details: single dose co-administered with oral semaglutide versus alone
[2] = cited from earlier work
drug transporters = details: in vitro studies; cited from earlier work
CYP enzymes = details: in vitro studies; cited from earlier work
[3] = co-administered with once-weekly subcutaneous semaglutide; cited from earlier work

increase in maximum concentration [1]: 10%
increase in total exposure [1]: 41%
SMILES: CC(C)c1nc(N(C)S(C)(=O)=O)nc(-c2ccc(F)cc2)c1/C=C/[C@@H](O)C[C@@H](O)CC(=O)O [Rosuvastatin, rosuvastatin]
bioavailability, orally administered ([2]; oral administration): approximately 20%

SMILES: CC[C@H](C)[C@H](NC(=O)[C@H](Cc1ccccc1)NC(=O)[C@H](CCC(=O)O)NC(=O)[C@H](CCCCNC(=O)COCCOCCNC(=O)COCCOCCNC(=O)CC[C@H](NC(=O)CCCCCCCCCCCCCCCCC(=O)O)C(=O)O)NC(=O)[C@H](C)NC(=O)[C@H](C)NC(=O)[C@H](CCC(N)=O)NC(=O)CNC(=O)[C@H](CCC(=O)O)NC(=O)[C@H](CC(C)C)NC(=O)[C@H](Cc1ccc(O)cc1)NC(=O)[C@H](CO)NC(=O)[C@H](CO)NC(=O)[C@@H](NC(=O)[C@H](CC(=O)O)NC(=O)[C@H](CO)NC(=O)[C@@H](NC(=O)[C@H](Cc1ccccc1)NC(=O)[C@@H](NC(=O)CNC(=O)[C@H](CCC(=O)O)NC(=O)C(C)(C)NC(=O)[C@@H](N)Cc1cnc[nH]1)[C@@H](C)O)[C@@H](C)O)C(C)C)C(=O)N[C@@H](C)C(=O)N[C@@H](Cc1c[nH]c2ccccc12)C(=O)N[C@@H](CC(C)C)C(=O)N[C@H](C(=O)N[C@@H](CCCNC(=N)N)C(=O)NCC(=O)N[C@@H](CCCNC(=N)N)C(=O)NCC(=O)O)C(C)C [Semaglutide, semaglutide]
potential to inhibit drug transporters (drug transporters): very low potential
elimination of intact semaglutide in urine ([2]; absorption, metabolism and excretion trial with subcutaneous semaglutide): 3%
potential to inhibit or induce CYP enzymes (CYP enzymes): very low potential

SMILES: C#C[C@]1(O)CC[C@H]2[C@@H]3CCC4=CC(=O)CC[C@@H]4[C@H]3CC[C@@]21CC [levonorgestrel]
increase in AUC [3]: 20%

decrease in the maximum concentration [1]: 34%
SMILES: NS(=O)(=O)c1cc(C(=O)O)c(NCc2ccco2)cc1Cl [Furosemide, furosemide]
